The values below come from ChEMBL document CHEMBL1127553, “Derivatives of a novel cyclopeptolide. 2. Synthesis, activity against multidrug resistance in CHO and KB cells in vitro, and structure-activity relationships” (1994).

Non-standard residues stand in square brackets, D forms with d. Residues, ends and D or L forms follow the SMILES beside them. *: point of attachment. NMeI = CC[C@H](C)[C@H](NC)C(=O)O; NMeD = CN[C@@H](CC(=O)O)C(=O)O; NMeV = CN[C@H](C(=O)O)C(C)C; Pip = O=C(O)[C@@H]1CCCCN1; Lac = C[C@H](O)C(=O)O; OtBu = CC(C)(C)O*

For assay [1], the system named is CHO. The assay can be described thus: The sensitizing capacity for colchicine treatment of parental (PAR)CHO cells at concentration 1.0 (mg/L). The assay is classed as functional, Cricetulus griseus.
Assay [2] deals with KB. The assay can be described thus: The sensitizing capacity of compound for colchicine treatment of multi drug resistance in KB cell was measured at concentration 1.0(mg/L). The assay is classed as functional, Homo sapiens.
Assay [3] has as its system CHO. The assay can be described thus: The sensitizing capacity for colchicine treatment of multi drug resistance (MDR) CHO cell at concentration 1.0(mg/L). The assay is classed as functional, Cricetulus griseus.
The subject of assay [4] is CHO. The assay can be described thus: The sensitizing capacity for colchicine treatment of multi drug resistance(MDR) in CHO cell at concentration 0.1(mg/L). Type of assay: functional, Cricetulus griseus.
Assay [5] concerns KB. The assay can be described thus: The sensitizing capacity of compound for colchicine treatment of multi drug resistance in KB cell was measured at concentration 3.0 (mg/L). The assay is classed as functional, Homo sapiens.
Assay [6] relates to CHO. The assay can be described thus: Sensitization of colchicine treated parental (PAR)CHO cells, measured at concentration 0.1(mg/L). The assay is classed as functional, Cricetulus griseus.

As to `CC[C@H](C)[C@H]1C(=O)NCC(=O)N(C)[C@@H](C(C)C)C(=O)N[C@@H](Cc2ccc(OC)cc2)C(=O)O[C@@H](C)C(=O)N2CCCC[C@H]2C(=O)N(C)[C@@H](C(C)C)C(=O)N[C@@H](C(C)C)C(=O)N(C)[C@@H](CC(=O)OCCC(C)(C)C)C(=O)N(C)[C@@H]([C@@H](C)CC)C(=O)N1C`, the Activity with CHO [1] is 7.9; with KB [2], 1.7; with CHO [3], 292; with CHO [4], 17; in the assay with KB [5], 25; with CHO [6] it was 6.7.

Turning to `CC[C@@H](C)[C@H]1C(=O)NCC(=O)N(C)[C@@H](C(C)C)C(=O)N[C@@H](Cc2ccc(OC)cc2)C(=O)O[C@@H](C)C(=O)N2CCCC[C@H]2C(=O)N(C)[C@@H](C(C)C)C(=O)N[C@@H](C(C)C)C(=O)N(C)[C@H](CC(=O)NC23CC4CC(CC(C4)C2)C3)C(=O)N(C)[C@@H]([C@@H](C)CC)C(=O)N1C`, the Activity in the assay on CHO [1] is 8; in the assay with KB [2], 3.7; in the assay on CHO [3], 290; in the assay on CHO [4], 92; with KB [5], 772; in the assay on CHO [6], 7.7.

Consider `CC[C@H](C)[C@H]1C(=O)NCC(=O)N(C)[C@@H](C(C)C)C(=O)N[C@@H](Cc2ccc(OC)cc2)C(=O)O[C@H](C)C(=O)N2CCCC[C@H]2C(=O)N(C)[C@@H](C(C)C)C(=O)N[C@@H](C(C)C)C(=O)N(C)[C@@H](CC(=O)NCCC(C)C)C(=O)N(C)[C@@H]([C@@H](C)CC)C(=O)N1C`, for which the Activity in the assay on CHO [1] worked out at 8.1; with KB [2], 1; in the assay with CHO [3], 126; in the assay with CHO [4], 3.7; in the assay with KB [5] it was 1.1; with CHO [6], 5.8.

Turning to `CC[C@@H](C)[C@H]1C(=O)NCC(=O)N(C)[C@@H](C(C)C)C(=O)N[C@@H](Cc2ccc(OC)cc2)C(=O)O[C@H](C)C(=O)N2CCCC[C@H]2C(=O)N(C)[C@@H](C(C)C)C(=O)N[C@@H](C(C)C)C(=O)N(C)[C@H](CC(=O)NCC(C)(C)C)C(=O)N(C)[C@@H]([C@@H](C)CC)C(=O)N1C`, the Activity with CHO [1] amounted to 12; with KB [2], 1.1; with CHO [3], 155; in the assay on CHO [4] it was 11; with KB [5], 2.3; in the assay on CHO [6], 7.4.

For `CC[C@@H](C)[C@H]1C(=O)NCC(=O)N(C)[C@@H](C(C)C)C(=O)N[C@@H](Cc2ccc(OC)cc2)C(=O)O[C@H](C)C(=O)N2CCCC[C@H]2C(=O)N(C)[C@@H](C(C)C)C(=O)N[C@@H](C(C)C)C(=O)N(C)[C@H](CC(=O)N[C@H](C(=O)OC(C)(C)C)C(C)C)C(=O)N(C)[C@@H]([C@@H](C)CC)C(=O)N1C`, the Activity with CHO [1] was found to be 8.5; in the assay with KB [2], 1.2; in the assay on CHO [3], 187; with CHO [4] it was 15; in the assay on KB [5], 124; with CHO [6], 6.

On to `CC[C@H](C)[C@H]1C(=O)NCC(=O)N(C)[C@@H](C(C)C)C(=O)N[C@@H](Cc2ccc(OC)cc2)C(=O)O[C@@H](C)C(=O)N2CCCC[C@H]2C(=O)N(C)[C@@H](C(C)C)C(=O)N[C@@H](C(C)C)C(=O)N(C)[C@@H](CC(=O)OCC23CC4CC(CC(C4)C2)C3)C(=O)N(C)[C@@H]([C@@H](C)CC)C(=O)N1C`, for which the Activity in the assay with CHO [1] was found to be 7.4; in the assay with KB [2], 1.3; in the assay with CHO [3], 78; with CHO [4], 1.4; in the assay on KB [5], 3; in the assay with CHO [6], 6.9.

In the case of `CC[C@H](C)[C@H]1C(=O)NCC(=O)N(C)[C@@H](C(C)C)C(=O)N[C@@H](Cc2ccc(OC)cc2)C(=O)O[C@@H](C)C(=O)N2CCCC[C@H]2C(=O)N(C)[C@@H](C(C)C)C(=O)N[C@@H](C(C)C)C(=O)N(C)[C@@H](CC(=O)OC(C)(C)C)C(=O)N(C)[C@@H]([C@@H](C)CC)C(=O)N1C` (cyclo(G[NMeV]Y(Me)[Lac][Pip][NMeV]V[NMeD](OtBu)[NMeI][NMeI])), the Activity in the assay with CHO [1] is listed as 7; in the assay on KB [2], 3.6; in the assay on CHO [3] it was 333; in the assay on CHO [4], 66; in the assay on KB [5], 196; in the assay with CHO [6], 5.4.

As for `CC[C@@H](C)[C@H]1C(=O)N(C)CC(=O)N(C)[C@@H](C(C)C)C(=O)N(C)[C@@H](Cc2ccc(OC)cc2)C(=O)O[C@H](C)C(=O)N2CCCC[C@H]2C(=O)N(C)[C@@H](C(C)C)C(=O)N(C)[C@@H](C(C)C)C(=O)N(C)[C@H](CC(=O)OC)C(=O)N(C)[C@@H]([C@@H](C)CC)C(=O)N1C`, the Activity with CHO [1] stood at 4.6; with CHO [3], 5.5; in the assay on CHO [4], 1.1; with CHO [6], 1.3.

Take `CC[C@@H](C)[C@H]1C(=O)NCC(=O)N(C)[C@@H](C(C)C)C(=O)N[C@@H](Cc2ccc(OC)cc2)C(=O)O[C@@H](C)C(=O)N2CCCC[C@H]2C(=O)N(C)[C@@H](C(C)C)C(=O)N[C@@H](C(C)C)C(=O)N(C)[C@H](CC(=O)N[C@H](C(=O)OC(C)(C)C)C(C)C)C(=O)N(C)[C@@H]([C@@H](C)CC)C(=O)N1C`: the Activity worked out at 11 in the assay with CHO [1], 344 with CHO [3], 115 in the assay with CHO [4] and 8.6 with CHO [6].

As to `CC[C@H](C)[C@H]1C(=O)NCC(=O)N(C)[C@@H](C(C)C)C(=O)N[C@@H](Cc2ccc(O)cc2)C(=O)O[C@H](C)C(=O)N2CCCC[C@H]2C(=O)N(C)[C@@H](C(C)C)C(=O)N[C@@H](C(C)C)C(=O)N(C)[C@@H](CC(=O)OC(C)(C)C)C(=O)N(C)[C@@H]([C@@H](C)CC)C(=O)N1C`, the Activity worked out at 14 in the assay with CHO [1], 172 in the assay on CHO [3], 2.5 with CHO [4] and 6.5 in the assay on CHO [6].

On to `CC[C@H](C)[C@H]1C(=O)N(C)[C@@H]([C@@H](C)CC)C(=O)NCC(=O)N(C)[C@@H](C(C)C)C(=O)N[C@@H](Cc2ccc(OC)cc2)C(=O)O[C@H](C)C(=O)N2CCCC[C@H]2C(=O)N(C)[C@@H](C(C)C)C(=O)N[C@@H](C(C)C)C(=O)N(C)[C@H](CN(C)C(C=O)CCCC(=O)OC(C)(C)C)C(=O)N1C` (stereo partly specified), for which the Activity turned out to be 8.2 in the assay with CHO [1], 114 with CHO [3], 4.2 with CHO [4] and 6.8 in the assay on CHO [6].

As for `CC[C@H](C)[C@H]1C(=O)NCC(=O)N(C)[C@@H](C(C)C)C(=O)N[C@@H](Cc2ccc(O)cc2)C(=O)O[C@H](C)C(=O)N2CCCC[C@H]2C(=O)N(C)[C@@H](C(C)C)C(=O)N[C@@H](C(C)C)C(=O)N(C)[C@@H](CC(=O)OCc2ccccc2)C(=O)N(C)[C@@H]([C@@H](C)CC)C(=O)N1C`, the Activity in the assay on CHO [1] stood at 14; with CHO [3], 26; in the assay on CHO [4] it was 1.2; in the assay on CHO [6], 4.4.

In the case of `CC[C@@H](C)[C@H]1C(=O)NCC(=O)N(C)[C@@H](C(C)C)C(=O)N[C@@H](Cc2ccc(OC)cc2)C(=O)O[C@H](C)C(=O)N2CCCC[C@H]2C(=O)N(C)[C@@H](C(C)C)C(=O)N[C@@H](C(C)C)C(=O)N(C)[C@H](CC(=O)NC(C)(C)C)C(=O)N(C)[C@@H]([C@@H](C)CC)C(=O)N1C`, the Activity came to 8.4 with CHO [1], 151 with CHO [3], 4.1 in the assay with CHO [4] and 4.4 in the assay on CHO [6].
